# Results as given in the supplement of paper PMC10949913.
# Legend:
# Details in all cases: 48 h
# CU-ACC2 [1] = test: AC50 viability; higher = less potent
# Method in brief: (§1)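 After 48 h of treatment with 23 nL of each library compound at 11 concentrations, three adrenocortical carcinoma cell lines in 1,536-well plates (500–1,000 cells/well, 5 µL medium) were given CellTiter-Glo for 15 minutes at room temperature. Luminescence was then read and normalised per plate to vehicle and empty-well controls. AC50 and area under the curve were drawn from fitted concentration-response curves of inhibitory or non-responding classes only.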
# NCI-H295R [2] = test: AC50 viability; higher = less potent
# Method in brief: as §1
# CU-ACC1 [3] = test: AC50 viability; higher = less potent
# Method in brief: as §1
# CU-ACC2 [4] = test: area under concentration-response curve (viability) (AUC (a.u.)); higher = less active
# Method in brief: as §1
# NCI-H295R [5] = test: as above
# Method in brief: as §1
# CU-ACC1 [6] = test: as above
# Method in brief: as §1
SMILES,AC50 viability (CU-ACC2 [1]) [µM],AC50 viability (NCI-H295R [2]) [µM],AC50 viability (CU-ACC1 [3]) [µM],area under concentration-response curve (CU-ACC2 [4]),area under concentration-response curve (NCI-H295R [5]),area under concentration-response curve (CU-ACC1 [6])
COc1cc(CCc2cc(NC(=O)c3ccc(N4C[C@@H](C)N[C@@H](C)C4)cc3)n[nH]2)cc(OC)c1,11.8,9.34,10.5,522,477,445
C=C1CCC2[C@](C)(CO)C(O)CC[C@]2(C)C1C/C=C1/C(=O)OCC1O (some centres not stated),11.8,20.9,18.6,504,445,472
Nc1ccccc1NC(=O)c1ccc(CNc2nccc(-c3cccnc3)n2)cc1,5.25,2.35,2.09,445,339,309
COc1cc2c(Nc3ccc(Cl)c(Cl)c3F)ncnc2cc1OC[C@@H]1C[C@@H]2CN(C)C[C@@H]2C1,10.5,16.6,16.6,515,483,397
Fc1ccc2[nH]ccc2c1-c1nc(N2CCOCC2)c2sc(CN3CCN(CC4CC4)CC3)cc2n1,26.3,20.9,18.6,462,487,482
COc1cc2nccc(Oc3ccc(NC(=O)Nc4cc(C)on4)c(Cl)c3)c2cc1OC,29.5,14.8,14.8,516,415,422
CO[C@H]1/C=C\C=C(\C)C(=O)NC2=CC(=O)C(NCCN(C)C)=C(C[C@@H](C)C[C@H](OC)[C@H](O)[C@@H](C)/C=C(/C)[C@@H]1OC(N)=O)C2=O,0.833,3.72,1.66,460,451,335
CCC(C1CCC(C)C(O1)C(C)C(O)C(C)C(=O)C(CC)C2OC\3(O[C@]4(CC[C@@](C)(O4)C5CC[C@@](O)(CC)C(C)O5)C(O)\C=C3)C(C)CC2C)C([O-])=O (some centres not stated),5.9,8.33,5.25,473,456,291
Nc1ncnc2c1c(-c1cnc3[nH]ccc3c1)nn2C1CCCC1,13.2,5.9,5.9,338,414,395
Cc1ccc2nc(NCCN)c3ncc(C)n3c2c1,10.5,14.8,14.8,369,423,413
Cn1cc(-c2cnn3c(N)c(Br)c([C@@H]4CCCNC4)nc23)cn1,20.9,18.6,20.9,568,471,483
CO/C1=C/C(C)=C\[C@@H](C)[C@@H](O)[C@@H](C)C/C(C)=C\C=C/[C@H](OC)[C@@H]([C@@H](C)[C@@H](O)[C@H](C)[C@@]2(O)C[C@@H](O)[C@H](C)[C@@H](C(C)C)O2)OC1=O,0.0393,2.48,0.0312,365,443,388
COc1ccc(CCN(C)CCCOc2ccc([S+](=O)([O-])c3c(C(C)C)c4ccccc4n3C)cc2)cc1OC,20.9,13.2,10.5,565,427,448
COc1ccc(F)c(F)c1C(=O)c1cnc(NC2CCN([S+](C)(=O)[O-])CC2)nc1N,1.48,4.68,2.35,364,435,409
CC(C)[C@@H](N(CCCN)C(=O)C1=CC=C(C)C=C1)C/2=C(\CC3=CC=CC=C3)C(=O)C4=C(O2)C=C(Cl)C=C4,26.3,2.35,13.2,565,359,448
CO[C@@H]1[C@@H](O)[C@H](O)[C@@H](n2c3c(Cl)cccc3c3c4c(c5c6cccc(Cl)c6[nH]c5c32)C(=O)NC4=O)O[C@H]1CO,8.33,2.63,3.32,438,494,461
Cc1cc(Cl)ccc1OCCCC(=O)NO,18.6,20.9,20.9,512,495,442
CCCC1(CCC)CCC2(CCN(CCCN(CC)CC)C2)CC1,6.61,4.17,4.68,516,448,309
NC(=O)c1cccc2c(NC(CN3CCC3)c3ccc(Cl)c(C(F)(F)F)c3)ncnc12 (configuration not stated),0.332,1.18,0.263,160,223,266
CC(=O)c1cc2c(o1)C(=O)c1ccccc1C2=O,1.66,0.934,0.263,377,351,270
CC(C)C[C@H](NC(=O)[C@H](CCc1ccccc1)NC(=O)CN1CCOCC1)C(=O)N[C@@H](Cc1ccccc1)C(=O)N[C@@H](CC(C)C)C(=O)[C@@]1(C)CO1,0.0235,0.166,0.186,256,359,302
C[C@@]12C(=O)OC(=O)[C@]1(C)[C@H]1CC[C@@H]2O1,10.5,4.68,7.42,431,434,442
